Results taken from patent US8158615B2, “Anti-viral composition for the topical treatment of Herpes Labialis (cold sores) and method for use thereof” (priority 2006, dated 2012).
Blank lines part the entries; values can stand above or below the molecule they belong to.

What was measured:
Herpes Labialis = conditions: 1% concentration; application after the prodromal phase; cited from earlier work
[1] = Percutaneous absorption of CTC-96 from Dermal ointment Formulation, finite dose technique, Franz Diffusion Cells; format: in vitro ADME, human; conditions: 48 hours; for Mass in Dermis / Mass in Receptor Solution / Percent of Applied Dose in Dermis / Percent of Applied Dose in Epidermis / Percent of Applied Dose in Receptor Solution: single application; for Percent of Applied Dose in Epidermis / Percent of Applied Dose in Receptor Solution / Mass in Epidermis / Mass in Surface wash / Mass, Total Recovery / Percent of Applied Dose in Surfacewash / Percent of Applied Dose, Total Recovery / Mass in Stratum Corneum / Percent of Applied Dose in Stratum Corneum: Mean ± SE; for Percent of Applied Dose in Receptor Solution: n = 3 donors; for Mass in Stratum Corneum / Percent of Applied Dose in Stratum Corneum: tape strip samples
Method: The percutaneous absorption of Doxovir-L® (CTC-96) was evaluated by mixing CTC-96 at two concentrations (10 mg/g and 1 mg/g) to homogeneity with a Dermal ointment Formulation (petrolatum 10% by weight, camphor 0.92% by weight, menthol 0.5% by weight, methyl salicylate 0.26% by weight, eucalyptus oil 0.30% by weight) and was determined in vitro, using the human cadaver skin model using the finite dose technique and Franz Diffusion Cells (12;13). Placebo consisted of the drug formulation without drug. The amount of Dermal ointment that is applied at each treatment was determined is shown in the following table (TABLE 1): The percutaneous absorption of Doxovir-L® (CTC-96) was determined is shown in the following table (TABLE 2 & TABLE 3): […]

HSV-1 = assay: Anti-viral activity of CTC-96 extracted from Dermal Ointment Formulation; format: cell-based; conditions: extract diluted to 2.5 μg/ml
Description: FIG. 1 is a graphical representation showing the anti-viral activity of CTC-96 extracted from the dermal formulation.
CTC-96 was mixed to homogeneity with a Dermal Ointment Formulation (petrolatum 10% by weight, camphor 0.92% by weight, menthol 0.5% by weight, methyl salicylate 0.26% by weight, eucalyptus oil 0.30% by weight).

Structure (SMILES): Nc1nc2c(ncn2CCC(CO)CO)c(=O)[nH]1 [penciclovir]
- reduction in symptoms and time to healing (Herpes Labialis): 20-30%

- Mass in Dermis ([1]; drug concentration 1 mg/g): 0 μg/cm2
- Mass in Receptor Solution ([1]; drug concentration 1 mg/g): 0 μg/cm2
- Percent of Applied Dose in Dermis ([1]; drug concentration 1 mg/g): 0% of Applied Dose
- Percent of Applied Dose in Epidermis ([1]; drug concentration 1 mg/g): 2.20 ± 1.09% of Applied Dose
- Percent of Applied Dose in Receptor Solution ([1]; drug concentration 1 mg/g): 0% of Applied Dose
- Mass in Epidermis ([1]; drug concentration 1 mg/g): 0.11 ± 0.05 μg/cm2
- Mass in Surface wash ([1]; drug concentration 1 mg/g): 3.17 ± 0.01 μg/cm2
- Mass, Total Recovery ([1]; drug concentration 1 mg/g): 4.83 ± 0.07 μg/cm2
- Percent of Applied Dose in Surfacewash ([1]; drug concentration 1 mg/g): 7.41 ± 0.30% of Applied Dose
- Percent of Applied Dose, Total Recovery ([1]; drug concentration 1 mg/g): 9.67 ± 1.34% of Applied Dose
- Mass in Stratum Corneum ([1]; drug concentration 1 mg/g): 0.03 ± 0.00 μg/cm2
- Percent of Applied Dose in Stratum Corneum ([1]; drug concentration 1 mg/g): 0.06 ± 0.06% of Applied Dose
- Mass in Dermis ([1]; drug concentration 10 mg/g): 0 μg/cm2
- Mass in Receptor Solution ([1]; drug concentration 10 mg/g): 0 μg/cm2
- Percent of Applied Dose in Dermis ([1]; drug concentration 10 mg/g): 0% of Applied Dose
- Percent of Applied Dose in Epidermis ([1]; drug concentration 10 mg/g): 3.63 ± 0.58% of Applied Dose
- Percent of Applied Dose in Receptor Solution ([1]; drug concentration 10 mg/g): 0% of Applied Dose
- Mass in Epidermis ([1]; drug concentration 10 mg/g): 1.81 ± 0.29 μg/cm2
- Mass in Surface wash ([1]; drug concentration 10 mg/g): 5.41 ± 1.90 μg/cm2
- Mass, Total Recovery ([1]; drug concentration 10 mg/g): 7.86 ± 1.56 μg/cm2
- Percent of Applied Dose in Surfacewash ([1]; drug concentration 10 mg/g): 10.81 ± 3.79% of Applied Dose
- Percent of Applied Dose, Total Recovery ([1]; drug concentration 10 mg/g): 15.72 ± 3.12% of Applied Dose
- Mass in Stratum Corneum ([1]; drug concentration 10 mg/g): 0.64 ± 0.33 μg/cm2
- Percent of Applied Dose in Stratum Corneum ([1]; drug concentration 10 mg/g): 1.29 ± 0.67% of Applied Dose
Structure (SMILES): CC(/C=C(/C)[O-])=NCCN=C(C)/C=C(/C)[O-].Cc1ncc[nH]1.Cc1ncc[nH]1.[Br-].[Co+3] [CTC-96]
- % Inhibition Mean ± SD (HSV-1; incubated at 4° C., 3 mo): 91.5 ± 0.5%
- % Inhibition Mean ± SD (HSV-1; incubated at 4° C., 6 mo): 91.5 ± 3.4%
- % Inhibition Mean ± SD (HSV-1; incubated at 4° C., time 0): 91.8 ± 1.7%
- % Inhibition Mean ± SD (HSV-1; incubated at 40° C., 3 mo): 90.1 ± 0.8%
- % Inhibition Mean ± SD (HSV-1; incubated at 40° C., 6 mo): 92.1 ± 1.0%
- % Inhibition Mean ± SD (HSV-1; incubated at 40° C., time 0): 88.8 ± 2.7%
